# Experiments:
# Assay in all cases: biochemical
# Parameters in all cases: KINOMEscan active-site-directed competition binding panel, 468 kinases, percent of DMSO control at 1 uM
# Details in all cases: KINOMEscan binding, percent of DMSO control; read-out: Ctrl%
# AKT3 = AKT3 (Homo sapiens, UniProt Q9Y243)
# LYN = LYN (Homo sapiens, UniProt P07948)
# [1] = target: T1, JAK1(JH1domain-catalytic) (Homo sapiens, UniProt P23458)
# T1 construct: JH1domain-catalytic
# TTK = TTK (Homo sapiens, UniProt P33981)
# MLK3 = target: T2, MLK3 (Homo sapiens, UniProt Q16584)
# T2 construct: gene MAP3K11
# ABL1-nonphosphorylated = target: T3, ABL1-nonphosphorylated (Homo sapiens, UniProt P00519)
# T3 construct: nonphosphorylated
# BRK = target: T4, BRK (Homo sapiens, UniProt Q13882)
# T4 construct: gene PTK6
# PDGFRA = PDGFRA (Homo sapiens, UniProt P16234)
# CDKL3 = CDKL3 (Homo sapiens, UniProt Q8IVW4)
# TAK1 = target: T5, TAK1 (Homo sapiens, UniProt O43318)
# T5 construct: gene MAP3K7
# HIPK4 = HIPK4 (Homo sapiens, UniProt Q8NE63)
# CDK3 = CDK3 (Homo sapiens, UniProt Q00526)
# AURKC = AURKC (Homo sapiens, UniProt Q9UQB9)
# SIK2 = SIK2 (Homo sapiens, UniProt Q9H0K1)
# ROS1 = ROS1 (Homo sapiens, UniProt P08922)
# TXK = TXK (Homo sapiens, UniProt P42681)
# [2] = target: T6, RSK1(Kin.Dom.2-C-terminal) (Homo sapiens, UniProt Q15418)
# T6 construct: gene RPS6KA1; Kin.Dom.2-C-terminal
# [3] = target: T7, ABL1(Y253F)-phosphorylated (Homo sapiens, UniProt P00519, Y253F)
# T7 construct: phosphorylated
# [4] = target: T8, RSK2(Kin.Dom.1-N-terminal) (Homo sapiens, UniProt P51812)
# T8 construct: gene RPS6KA3; Kin.Dom.1-N-terminal
# PLK3 = PLK3 (Homo sapiens, UniProt Q9H4B4)
# [5] = target: T9, ABL1(T315I)-nonphosphorylated (Homo sapiens, UniProt P00519, T315I)
# T9 construct: nonphosphorylated
# PIK3CA(C420R) = PIK3CA(C420R) (Homo sapiens, UniProt P42336, C420R)
# MEK3 = target: T10, MEK3 (Homo sapiens, UniProt P46734)
# T10 construct: gene MAP2K3
# T10 sequence (P46734 whole entry): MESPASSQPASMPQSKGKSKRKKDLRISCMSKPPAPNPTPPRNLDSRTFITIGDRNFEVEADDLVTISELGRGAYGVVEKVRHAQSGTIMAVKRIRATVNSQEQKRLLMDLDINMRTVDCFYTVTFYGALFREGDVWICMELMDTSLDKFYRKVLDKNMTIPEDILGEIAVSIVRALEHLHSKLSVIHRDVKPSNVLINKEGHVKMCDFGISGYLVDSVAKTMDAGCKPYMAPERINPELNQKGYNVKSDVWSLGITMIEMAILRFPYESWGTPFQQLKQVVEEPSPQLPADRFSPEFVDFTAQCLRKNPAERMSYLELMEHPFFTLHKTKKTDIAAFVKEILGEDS
# T4 sequence (Q13882 whole entry): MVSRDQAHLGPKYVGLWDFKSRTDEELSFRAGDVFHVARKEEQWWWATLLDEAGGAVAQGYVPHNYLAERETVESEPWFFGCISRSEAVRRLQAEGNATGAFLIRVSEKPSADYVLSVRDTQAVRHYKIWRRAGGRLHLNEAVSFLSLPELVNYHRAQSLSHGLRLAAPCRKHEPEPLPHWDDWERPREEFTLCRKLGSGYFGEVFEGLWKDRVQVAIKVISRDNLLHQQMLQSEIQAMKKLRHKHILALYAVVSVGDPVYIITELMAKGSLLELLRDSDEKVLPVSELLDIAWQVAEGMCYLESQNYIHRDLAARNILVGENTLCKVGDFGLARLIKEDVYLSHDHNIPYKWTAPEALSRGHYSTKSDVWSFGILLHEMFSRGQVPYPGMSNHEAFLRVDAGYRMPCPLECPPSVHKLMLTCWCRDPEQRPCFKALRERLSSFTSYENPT
# T2 sequence (Q16584 whole entry): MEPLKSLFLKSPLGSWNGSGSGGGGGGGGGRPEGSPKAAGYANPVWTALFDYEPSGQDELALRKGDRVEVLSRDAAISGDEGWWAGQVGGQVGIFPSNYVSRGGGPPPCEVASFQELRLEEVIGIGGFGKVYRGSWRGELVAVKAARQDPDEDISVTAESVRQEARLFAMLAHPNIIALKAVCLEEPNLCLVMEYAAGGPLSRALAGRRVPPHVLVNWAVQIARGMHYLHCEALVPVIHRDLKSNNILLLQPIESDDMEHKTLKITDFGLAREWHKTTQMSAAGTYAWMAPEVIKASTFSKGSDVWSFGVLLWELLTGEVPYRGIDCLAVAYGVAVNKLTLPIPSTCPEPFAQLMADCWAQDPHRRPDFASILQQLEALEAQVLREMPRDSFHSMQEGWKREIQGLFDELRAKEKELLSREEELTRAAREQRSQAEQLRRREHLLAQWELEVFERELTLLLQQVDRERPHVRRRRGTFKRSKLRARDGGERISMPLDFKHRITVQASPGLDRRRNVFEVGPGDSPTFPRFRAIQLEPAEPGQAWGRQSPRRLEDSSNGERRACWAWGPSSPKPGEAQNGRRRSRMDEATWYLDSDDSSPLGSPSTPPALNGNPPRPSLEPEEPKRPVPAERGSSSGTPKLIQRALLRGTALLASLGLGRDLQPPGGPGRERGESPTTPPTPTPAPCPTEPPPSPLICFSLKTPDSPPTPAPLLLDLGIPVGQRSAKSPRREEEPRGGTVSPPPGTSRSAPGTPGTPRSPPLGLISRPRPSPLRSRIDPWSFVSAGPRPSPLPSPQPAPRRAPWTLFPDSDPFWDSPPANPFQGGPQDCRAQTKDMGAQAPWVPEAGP
# Chain of AKT3 (Q9Y243 whole entry): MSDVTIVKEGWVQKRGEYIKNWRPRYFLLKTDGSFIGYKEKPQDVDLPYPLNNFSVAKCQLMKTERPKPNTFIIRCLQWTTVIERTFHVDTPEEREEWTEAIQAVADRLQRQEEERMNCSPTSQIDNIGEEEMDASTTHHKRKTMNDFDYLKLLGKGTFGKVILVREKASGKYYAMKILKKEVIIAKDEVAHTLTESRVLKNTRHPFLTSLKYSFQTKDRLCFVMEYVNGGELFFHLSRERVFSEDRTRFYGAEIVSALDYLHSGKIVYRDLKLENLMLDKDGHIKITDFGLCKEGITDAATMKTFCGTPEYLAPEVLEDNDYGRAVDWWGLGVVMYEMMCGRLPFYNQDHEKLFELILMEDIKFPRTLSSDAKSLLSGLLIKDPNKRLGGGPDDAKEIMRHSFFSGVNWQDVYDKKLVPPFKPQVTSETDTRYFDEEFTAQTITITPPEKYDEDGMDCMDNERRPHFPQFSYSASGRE
# Chain of PDGFRA (P16234 whole entry): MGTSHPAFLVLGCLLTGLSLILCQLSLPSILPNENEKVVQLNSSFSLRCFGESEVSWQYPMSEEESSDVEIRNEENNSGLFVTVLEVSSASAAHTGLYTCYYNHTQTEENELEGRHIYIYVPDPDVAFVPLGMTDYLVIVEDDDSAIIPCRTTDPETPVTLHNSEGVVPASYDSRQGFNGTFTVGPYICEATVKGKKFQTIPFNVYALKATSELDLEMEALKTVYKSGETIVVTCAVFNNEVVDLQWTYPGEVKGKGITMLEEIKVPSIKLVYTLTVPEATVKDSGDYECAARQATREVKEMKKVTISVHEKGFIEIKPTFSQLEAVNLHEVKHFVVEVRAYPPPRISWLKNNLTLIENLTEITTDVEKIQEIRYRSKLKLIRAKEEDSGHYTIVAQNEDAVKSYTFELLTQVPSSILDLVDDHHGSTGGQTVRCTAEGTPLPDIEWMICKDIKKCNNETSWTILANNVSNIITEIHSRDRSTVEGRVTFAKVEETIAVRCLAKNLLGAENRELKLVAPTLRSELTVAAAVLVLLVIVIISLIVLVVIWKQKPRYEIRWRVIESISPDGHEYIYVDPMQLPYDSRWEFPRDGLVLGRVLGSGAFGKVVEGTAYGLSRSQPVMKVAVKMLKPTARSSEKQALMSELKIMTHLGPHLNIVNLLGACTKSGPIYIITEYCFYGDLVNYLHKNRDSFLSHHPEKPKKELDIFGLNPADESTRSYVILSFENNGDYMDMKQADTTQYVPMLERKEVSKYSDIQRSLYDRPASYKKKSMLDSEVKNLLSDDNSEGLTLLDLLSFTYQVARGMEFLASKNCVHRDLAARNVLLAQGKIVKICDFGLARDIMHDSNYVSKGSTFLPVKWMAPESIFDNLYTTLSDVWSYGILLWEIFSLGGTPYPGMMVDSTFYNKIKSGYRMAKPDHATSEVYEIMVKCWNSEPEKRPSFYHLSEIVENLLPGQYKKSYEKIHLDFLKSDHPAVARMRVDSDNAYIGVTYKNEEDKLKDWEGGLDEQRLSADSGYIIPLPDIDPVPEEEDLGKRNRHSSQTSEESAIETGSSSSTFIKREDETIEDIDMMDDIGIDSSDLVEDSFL
# Chain of CDKL3 (Q8IVW4 whole entry): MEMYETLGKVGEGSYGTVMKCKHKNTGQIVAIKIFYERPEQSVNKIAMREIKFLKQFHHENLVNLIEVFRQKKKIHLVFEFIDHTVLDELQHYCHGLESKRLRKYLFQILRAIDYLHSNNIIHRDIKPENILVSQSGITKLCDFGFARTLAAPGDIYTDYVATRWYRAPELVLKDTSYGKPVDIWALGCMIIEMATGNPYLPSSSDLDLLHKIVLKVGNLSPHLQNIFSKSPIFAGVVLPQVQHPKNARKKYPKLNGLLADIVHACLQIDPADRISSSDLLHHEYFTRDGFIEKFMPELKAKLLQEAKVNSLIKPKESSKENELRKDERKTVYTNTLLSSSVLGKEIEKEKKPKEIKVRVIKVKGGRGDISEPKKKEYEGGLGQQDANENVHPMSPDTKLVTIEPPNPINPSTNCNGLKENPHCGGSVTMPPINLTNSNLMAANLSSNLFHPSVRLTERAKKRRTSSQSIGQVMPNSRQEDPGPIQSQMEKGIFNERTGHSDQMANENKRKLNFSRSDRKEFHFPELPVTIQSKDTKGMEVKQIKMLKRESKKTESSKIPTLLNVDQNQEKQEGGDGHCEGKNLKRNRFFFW
# Chain of TTK (P33981 whole entry): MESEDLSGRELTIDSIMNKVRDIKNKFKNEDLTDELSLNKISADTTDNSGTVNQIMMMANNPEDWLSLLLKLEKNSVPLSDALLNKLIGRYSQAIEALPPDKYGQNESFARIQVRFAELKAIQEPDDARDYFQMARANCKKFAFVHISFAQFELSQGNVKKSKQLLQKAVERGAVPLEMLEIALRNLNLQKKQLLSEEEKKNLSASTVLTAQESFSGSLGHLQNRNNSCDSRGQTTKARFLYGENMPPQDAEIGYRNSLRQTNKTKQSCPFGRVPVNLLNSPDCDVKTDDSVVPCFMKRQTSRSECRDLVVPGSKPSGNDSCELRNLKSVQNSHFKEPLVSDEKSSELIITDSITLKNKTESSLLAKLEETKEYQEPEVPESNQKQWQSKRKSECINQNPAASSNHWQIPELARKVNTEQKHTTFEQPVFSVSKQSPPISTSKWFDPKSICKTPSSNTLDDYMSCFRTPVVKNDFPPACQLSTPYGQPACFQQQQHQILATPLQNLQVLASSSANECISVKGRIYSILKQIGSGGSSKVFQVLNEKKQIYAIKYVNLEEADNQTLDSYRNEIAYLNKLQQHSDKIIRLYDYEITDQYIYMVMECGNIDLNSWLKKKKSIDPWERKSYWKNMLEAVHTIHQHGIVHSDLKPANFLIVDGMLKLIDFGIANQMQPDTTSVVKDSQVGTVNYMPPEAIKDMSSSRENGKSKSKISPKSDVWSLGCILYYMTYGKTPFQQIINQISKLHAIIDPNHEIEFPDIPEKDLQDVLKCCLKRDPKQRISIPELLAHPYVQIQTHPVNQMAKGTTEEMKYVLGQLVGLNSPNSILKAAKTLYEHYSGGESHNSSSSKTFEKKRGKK
# Chain of CDK3 (Q00526 whole entry): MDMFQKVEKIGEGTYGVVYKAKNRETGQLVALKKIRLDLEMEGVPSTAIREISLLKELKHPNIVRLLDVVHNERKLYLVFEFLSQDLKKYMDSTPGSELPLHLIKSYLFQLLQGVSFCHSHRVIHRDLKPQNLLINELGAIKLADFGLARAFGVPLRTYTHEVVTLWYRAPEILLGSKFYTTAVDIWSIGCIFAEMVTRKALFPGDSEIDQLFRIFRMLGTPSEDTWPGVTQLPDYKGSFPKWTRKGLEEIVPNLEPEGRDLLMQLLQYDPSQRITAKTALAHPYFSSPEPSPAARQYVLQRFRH
structure (smiles),measurement,setting,value
Cc1ccc(NC(=O)c2cccc(C(F)(F)F)c2)cc1Nc1cc(-c2cccnc2)nc2[nH]ccc12 [HZX-02-059],remaining binding at 1 µM,AKT3,69%
same,remaining binding at 1 µM,LYN,17%
same,remaining binding at 1 µM,[1],100%
same,remaining binding at 1 µM,TTK,99%
same,remaining binding at 1 µM,MLK3,87%
same,remaining binding at 1 µM,ABL1-nonphosphorylated,14%
same,remaining binding at 1 µM,BRK,83%
same,remaining binding at 1 µM,PDGFRA,66%
same,remaining binding at 1 µM,CDKL3,84%
same,remaining binding at 1 µM,TAK1,73%
same,remaining binding at 1 µM,HIPK4,86%
same,remaining binding at 1 µM,CDK3,100%
same,remaining binding at 1 µM,AURKC,75%
same,remaining binding at 1 µM,SIK2,87%
same,remaining binding at 1 µM,ROS1,72%
same,remaining binding at 1 µM,TXK,78%
same,remaining binding at 1 µM,[2],100%
same,remaining binding at 1 µM,[3],49%
same,remaining binding at 1 µM,[4],78%
same,remaining binding at 1 µM,PLK3,93%
same,remaining binding at 1 µM,[5],77%
same,remaining binding at 1 µM,PIK3CA(C420R),100%
same,remaining binding at 1 µM,MEK3,83%

# Reference: paper PMC8799717, “Pharmacological targeting PIKfyve and tubulin as an effective treatment strategy for double-hit lymphoma” (Cell Death Discovery, 2022)
